Common to all, as to assay type: binding, Bubalus bubalis
In assay [1] the target is T1, OBP1a (bnOBP isoform 1a; also printed 1OBPa).
T1 construct: gene OBP
As to the kind of experiment: fluorescence titration. To be noted: 50 mM Tris-HCl, 300 mM NaCl, pH 8.0; 2 µM protein; fluorescent probe; read-out: dissociation constant.

Assay [2] has the same target. In words: competitive 1-NPN displacement fluorescence. To be noted: 2 µM protein, 2 µM 1-NPN, 50 mM Tris-HCl, 300 mM NaCl, pH 8.0; competitive with 1-NPN.
The target is the same in assay [3]. In words: competitive 1-NPN displacement fluorescence. To be noted: 2 µM protein, 2 µM 1-NPN, 50 mM Tris-HCl, 300 mM NaCl, pH 8.0; competitive with 1-NPN. From the text: competitive 1-NPN displacement fluorescence on OBP1a (bnOBP isoform 1a; also printed 1OBPa)
This is another data set of the same source.

The structures appear in SMILES notation.

On to `c1ccc(Nc2cccc3ccccc23)cc1` [N-phenyl-1-naphthylamine], for which the Kd in assay [1] stood at 0.7 µM. On to `CCCCCCCC/C=C\CCCCCCCC(=O)O` [oleic acid], for which the Ki (as a rule, a dissociation constant, usually derived from enzyme kinetics or from competition with a known ligand) in assay [2] amounted to 4.2 µM. On to `Cc1ccc(O)cc1` [p-cresol], for which the Ki came out at 266 µM in assay [3] and 3.5 µM in assay [2].

Values taken from paper doi:10.1101/2020.09.17.301234v1, “Molecular and functional characterization of buffalo nasal epithelial odorant binding proteins and their structural insights by in-silico and biochemical approach” (biorxiv, 2020).
